Measurements taken from paper PMC7217877, “N-AS-triggered SPMs are direct regulators of microglia in a model of Alzheimer’s disease” (Nature Communications, 2020).
“And” between values parts separate entries of the source, which are not always exact repeats. Equal values may be shown once.

Legend:
Type in all cases: in vivo, mouse
APP/PS1 mice [1] = assay: N-AS level in microglia and neuron isolated from treated mice (LC-MS/MS, Fig 4b); conditions: N-AS 30 mg kg^-1 daily s.c. 8 weeks, individual values
Description: Reactions were quenched by adding equal volume of cold methanol. A 100 μl aliquot of the reaction mixture was mixed with 30 μl of distilled water containing 5 ng ml^−1 of furosemide (internal standard) for 1 min and vigorously mixed with […] of ethyl acetate for 20 min. After centrifugation at 16,000×g for 10 min, the mixtures were kept for 2 h for freezing aqueous phase. The upper ethyl acetate layer was transferred to a clean tube and evaporated to dryness under a gentle stream of nitrogen. Then, the dried extract was reconstituted in 100 µl of mobile phase and 10 µl aliquot of the solution was injected into an Agilent 6470 Triple Quad LC–MS/MS system (Agilent, Wilmington, DE) coupled with an Agilent 1260 HPLC system. […] Quantification was carried out using multiple reaction monitoring (MRM) at m/z 340.3→263.3 for N-AS and m/z 328.9→284.8 for furosemide (internal standard) in negative ionization mode and collision energy of 20 eV. […]
Adult neurons and microglia were isolated from the mice brain as previously described. […] The purity of the fractionated neurons and microglia were acutely confirmed by neuronal (NeuN, mouse, 1:200, Millipore, MAB377) and microglial (Iba1, rabbit, 1:1000, Wako, 019-19941) markers and the isolated neurons and microglia were acutely analyzed for the acetylation assay and lipid mediators metabololipidomics. […]

APP/PS1 mice [2] = assay: immunofluorescence of 6E10, Aβ40 and Aβ42 (Fig 6b-d); conditions: for 6E10 immunofluorescence quantification (Figure 6b) / Aβ40 immunofluorescence quantification (Figure 6c) / Aβ42 immunofluorescence quantification (Figure 6d): APP/PS1 + N-AS, individual animals
Description: (§1) Thioflavin S (Sigma-Aldrich) staining was carried out according to previously described procedures. We used 6E10 (mouse, 1:100, Signet, SIG39300), anti-20G10 (mouse, 1:1000, provided by D. R. Howlett, GlaxoSmithKline, Harlow, Essex, UK) for Aβ42, anti-G30 (rabbit, 1:1000, provided by D. R. Howlett) for Aβ40, SMA (mouse, 1:400, Sigma-Aldrich, A2547), AT8 (mouse, 1:500, Thermo Fisher Scientific, MN1020), Caspase-3 (mouse, 1:200, Novus Biologicals, NB100-56708), ac-S565 (rabbit, 1:100), COX2 (mouse, 1:250, Thermo Fisher Scientific, 35-8200), Iba1 (rabbit, 1:500, Wako, 019-19941 and goat, Abcam, ab5076), NeuN (mouse, 1:500, Millipore, MAB177), GFAP (rabbit, 1:500, Dako, N1506 and chicken, 1:500, Abcam, ab4674), and Lamp1 (mouse, 1:200, Abcam, ab24170). The sections were analyzed with a laser-scanning confocal microscope (FV3000; Olympus) or with a BX51 microscope (Olympus). MetaMorph software (Molecular Devices) was used to quantification. Three-dimensional reconstruction of microglia was recorded and analyzed using IMARIS software (Bitplane)[11]. For the analysis of age-dependent microglial COX2^+ CX3CR1^+ cells in WT and APP/PS1 mice, COX2 (rabbit, 1:100, Abcam, ab15191) and CX3CR1 (mouse, 1:100, BioLegend, 149008) antibody were used and the images were acquired on Alexa 488 and APC Channel with performed using Operetta CLS and Analysis Software 4.5 (Perkin-Elmer).
Transgenic mouse lines over-expressing the hAPP695swe (APP) and presenilin-1M146V (PS1) mutations were originated from GlaxoSmithKline (Harlow, UK)[32] and maintained as described previously. We purchased 5×FAD mice from Jackson Labs (Stock number. 34840-JAX). Because APP/PS1 and 5xFAD mice show sex differences in disease progression, we used only male mice. To examine possible therapeutic effect of N-AS and aspirin in APP/PS1 mice, the N-AS (30 mg kg^−1, Sigma-Aldrich, 01912) was injected daily s.c. for 8 weeks to 7-months-old APP/PS1 mice until the age of 9 months, and aspirin (2 mg kg^−1, Sigma-Aldrich, A5376)[33] was administrated orally to 7-months-old APP/PS1 mice for 8 weeks. Also, to confirm possible therapeutic efficacy of N-AS in 5×FAD, the N-AS (30 mg kg^−1, Sigma-Aldrich, 01912) was injected daily s.c. for 4 weeks to 3-months-old 5×FAD mice until the age of 4 months. Block randomization method was used to allocate the animals to experimental groups. To eliminate the bias, we were blinded in experimental progress such as data collection and data analysis. Mice were housed at temperature of 22 °C and a 12 h day/12 h night cycle with free access to tap water and food pellets. All protocols were approved by the Kyungpook National University Institutional Animal Care and Use Committee.

APP/PS1 mice [3] = assay: Imaris-based morphology of microglia (Supplementary Fig 5b; Additional Fig 2)
Description: as §1, with “(Perkin-Elmer). […]” for “(Perkin-Elmer).”

CCCCCCCCCCCCC/C=C/[C@@H](O)[C@H](CO)NC(C)=O [N-AS, N-((2S,3R,E)-1,3-Dihydroxyoctadec-4-en-2-yl)acetamide]
N-AS quantification (Fig 4b) (APP/PS1 mice [1]; Microglia of APP/PS1 mice): 8.217 and 7.5949 and 7.58 and 7.906 and 7.587 and 7.743
N-AS quantification (Fig 4b) (APP/PS1 mice [1]; Neuron of APP/PS1 mice): 2.188 and 3.557 and 2.872 (3×) and 3.215
6E10 immunofluorescence quantification (Figure 6b) (APP/PS1 mice [2]; Cortex): 0.0608 and 0.09453 and 0.05939 and 0.02037 and 0.005591 and 0.04313 and 0.04886 and 0.06655
Aβ40 immunofluorescence quantification (Figure 6c) (APP/PS1 mice [2]; Cortex): 0.06419 and 0.04296 and 0.0589 and 0.2298 and 0.117 and 0.122 and 0.04359 and 0.05854
Aβ42 immunofluorescence quantification (Figure 6d) (APP/PS1 mice [2]; Cortex): 0.1554 and 0.215 and 0.1788 and 0.1001 and 0.1191 and 0.09457 and 0.1824 and 0.177
6E10 immunofluorescence quantification (Figure 6b) (APP/PS1 mice [2]; Hippocampus): 0.04847 and 0.07321 and 0.02799 and 0.04609 and 0.00742 and 0.009448 and 0.05438 and 0.09253
Aβ40 immunofluorescence quantification (Figure 6c) (APP/PS1 mice [2]; Hippocampus): 0.07041 and 0.04924 and 0.02685 and 0.04786 and 0.1308 and 0.07762 and 0.09677 and 0.1893 and 0.1045
Aβ42 immunofluorescence quantification (Figure 6d) (APP/PS1 mice [2]; Hippocampus): 0.2679 and 0.3316 and 0.148 and 0.1454 and 0.2815 and 0.3706 and 0.09586 and 0.279 and 0.395
Aβ levels by immunofluorescence of 6E10, Aβ40, Aβ42 (APP/PS1 mice [2]; N-AS vs vehicle APP/PS1): significantly lower Aβ levels
morphology of non-plaque-associated microglia (APP/PS1 mice [3]; APP/PS1 vs N-AS-treated APP/PS1, Additional Fig. 2 of peer review file): did not differ between the groups
morphology of microglia surrounding Aβ (APP/PS1 mice [3]; N-AS vs vehicle APP/PS1): phagocytic morphology (ameboid microglial morphology) was more evident
